According to PMC6941110, “Mutation of Aspartate 238 in FAD Synthase Isoform 6 Increases the Specific Activity by Weakening the FAD Binding” (International Journal of Molecular Sciences, 2019):
Like-named read-outs stand apart in the source and are kept apart here.

Columns and labels:
[1] = target: T1, hFADS6 (human FAD synthase isoform 6) (Homo sapiens, UniProt Q8NFF5, D505A); test: stopped-flow flavin fluorescence, koff/kon; type: binding
T1 construct: gene FLAD1; 320-residue isoform 6, FADSy domain only, lacks N-terminal FADHy domain; monomer
Source text: stopped-flow flavin fluorescence, koff/kon on hFADS6 (human FAD synthase isoform 6) | obtained values are again indicative of the mutant binding FAD slower and weaker than the WT

[2] = target: T2, hFADS6 (human FAD synthase isoform 6) (Homo sapiens, UniProt Q8NFF5); test: biochemical; set-up: Stopped-flow flavin fluorescence, FAD binding with 250 uM PPi; kon/koff from kobs1 versus flavin concentration, 25 °C, pH 7.0; conditions: with 250 uM PPi
T2 construct: gene FLAD1; 320-residue isoform 6, FADSy domain only, lacks N-terminal FADHy domain; monomer
Procedure: (§1) Pre-steady-state kinetic experiments were performed using stopped-flow spectroscopy on an Applied Photophysics SX17.MV spectrophotometer using the Pro-Data SX software (Applied Photophysics Ltd. Leatherhead, Surrey, UK). The fluorescence of flavins was measured in a continuous assay with an excitation wavelength of 445 nm, while the emission was recovered using a >530 nm cut-off filter and the [compound left out] was set to 350 V. Then, 100 nM hFADS6 samples were mixed with samples that contained increasing concentrations of FMN or FAD (which varied in the range 0.025–1 μM), in the absence and in the presence of saturating concentrations of their respective co-substrates ATP or PPi (250 µM). All the indicated concentrations are final ones in the stopped-flow observation cell. Measurements were carried out at 25 °C in 50 mM HEPES/NaOH, 10 mM MgCl2, pH 7.0, 5 mM β-mercaptoethanol. At least three reproducible kinetic traces of changes in fluorescence were recorded for each condition and fitted to exponential equations (usually one or two exponentials were used) (2) y=∑Aie^−kobs,it where Ai and kobs,i represent the amplitude and the observed rate constant, respectively, for each of the processes (i) that contribute to the overall time-dependent fluorescence change for each experimental condition. […] When similarly evaluating the reverse reaction, kinetic traces for both WT and the D238A mutant show an initial fluorescence exponential decay of small amplitude that is followed by a linear increase of the signal (Figure 8b). We again deduce the kinetics for binding of FAD from the exponential decay, while rates for the subsequent linear fluorescence increase relate well to steady-state kinetic parameters for the transformation of FAD into FMN. Although the small amplitudes for FAD binding make it difficult to accurately determine kobs values, both parameters show a dependence on the substrate concentration (Supplementary Figure S3a,b). […] Normalized kinetic traces for the flavin fluorescence evolution upon mixing the protein with substrates for the (a) forward (ATP + FMN) and (b) reverse (PPi + FAD) reactions. Traces for WT and D238A hFADS are shown in colored grey and red scales as a function of the flavin given concentrations. Normalized signals regarding the fluorescence of the forward reaction at maximum FMN concentration are shown. Kinetic traces were obtained at 25 °C in mixtures containing 100 nM of protein and 250 µM of either ATP (a) or PPi (b) in 50 mM HEPES/NaOH, 10 mM MgCl2, pH 7.0, 5 mM β-mercaptoethanol. All concentrations are final after mixing.

[3] = target: T1, hFADS6 (human FAD synthase isoform 6); test: biochemical; set-up: Stopped-flow flavin fluorescence, FAD binding with 250 uM PPi; kon/koff from kobs1 versus flavin concentration, 25 °C, pH 7.0; conditions: error at least 30%, with 250 uM PPi
Procedure: as §1

[4] = target: T2, hFADS6 (human FAD synthase isoform 6); test: stopped-flow flavin fluorescence, koff/kon; type: binding
[5] = target: T2, hFADS6 (human FAD synthase isoform 6); test: biochemical; set-up: Stopped-flow flavin fluorescence, FMN binding with 250 uM ATP; kon/koff from kobs1 versus flavin concentration, 25 °C, pH 7.0; conditions: with 250 uM ATP
Procedure: (§2) Pre-steady-state kinetic experiments were performed using stopped-flow spectroscopy on an Applied Photophysics SX17.MV spectrophotometer using the Pro-Data SX software (Applied Photophysics Ltd. Leatherhead, Surrey, UK). The fluorescence of flavins was measured in a continuous assay with an excitation wavelength of 445 nm, while the emission was recovered using a >530 nm cut-off filter and the [compound left out] was set to 350 V. Then, 100 nM hFADS6 samples were mixed with samples that contained increasing concentrations of FMN or FAD (which varied in the range 0.025–1 μM), in the absence and in the presence of saturating concentrations of their respective co-substrates ATP or PPi (250 µM). All the indicated concentrations are final ones in the stopped-flow observation cell. Measurements were carried out at 25 °C in 50 mM HEPES/NaOH, 10 mM MgCl2, pH 7.0, 5 mM β-mercaptoethanol. At least three reproducible kinetic traces of changes in fluorescence were recorded for each condition and fitted to exponential equations (usually one or two exponentials were used) (2) y=∑Aie^−kobs,it where Ai and kobs,i represent the amplitude and the observed rate constant, respectively, for each of the processes (i) that contribute to the overall time-dependent fluorescence change for each experimental condition. […] In mixtures containing substrates of the forward reaction, ATP and FMN, the relevant decrease in the flavin fluorescence is indicative of internalization of the isoalloxazine or FMN transformation into FAD. These observations also agree with ATP binding to the protein prior to FMN in the bi-bi ordered kinetic mechanism reported for hFADSs. Nonetheless, features for this fluorescence decay also differ between WT and D238A hFADSs (Figure 8a). […] The first exponential decay has observed rate constants (kobs1) in the low seconds range which depend linearly on the FMN concentration, while its amplitude is concentration independent (Supplementary Figure S3a,b). kobs2 for the second exponential decay indicate a slower process nearly FMN concentration independent, with amplitude increasing with FMN concentration (Supplementary Figure S3a,b). […] The derived Kd^FMN, 0.094 ± 0.004 µM, agrees well with the above derived Km^FMN for WT hFADS6. […] Finally, the continuous and linear flavin fluorescence decay established after the exponential processes fits well with the settlement of the catalytic steady-state transformation of FMN into FAD, showing, in addition, rates in the ranges of Vmax and kcat. […] Nonetheless, fluorescence decay related to FMN transformation into FAD follows similar traits to the WT ones (Fig  Figure 8 Dissection of the kinetics of the substrates binding process from the catalytic reaction by stopped-flow spectrophotometry. Normalized kinetic traces for the flavin fluorescence evolution upon mixing the protein with substrates for the (a) forward (ATP + FMN) and (b) reverse (PPi + FAD) reactions. Traces for WT and D238A hFADS are shown in colored grey and red scales as a function of the flavin given concentrations. Normalized signals regarding the fluorescence of the forward reaction at maximum FMN concentration are shown. Kinetic traces were obtained at 25 °C in mixtures containing 100 nM of protein and 250 µM of either ATP (a) or PPi (b) in 50 mM HEPES/NaOH, 10 mM MgCl2, pH 7.0, 5 mM β-mercaptoethanol. All concentrations are final after mixing.

[6] = target: T1, hFADS6 (human FAD synthase isoform 6); test: biochemical; set-up: Stopped-flow flavin fluorescence, FMN binding with 250 uM ATP; kon/koff from kobs1 versus flavin concentration, 25 °C, pH 7.0; conditions: error at least 30%, with 250 uM ATP
Procedure: as §2

[7] = target: T1, hFADS6 (human FAD synthase isoform 6); test: inhibition of FADS activity; type: biochemical; conditions: inhibitor

T2 sequence (Q8NFF5 268-587): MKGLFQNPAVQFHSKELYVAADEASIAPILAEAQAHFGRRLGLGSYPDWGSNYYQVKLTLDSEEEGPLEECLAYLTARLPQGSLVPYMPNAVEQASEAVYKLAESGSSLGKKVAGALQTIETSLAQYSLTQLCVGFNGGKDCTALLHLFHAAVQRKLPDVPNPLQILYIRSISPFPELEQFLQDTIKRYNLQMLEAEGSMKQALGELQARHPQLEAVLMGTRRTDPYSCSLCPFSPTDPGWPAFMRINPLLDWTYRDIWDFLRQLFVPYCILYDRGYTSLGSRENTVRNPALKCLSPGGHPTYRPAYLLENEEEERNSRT
T1 sequence (Q8NFF5 268-587 D505A): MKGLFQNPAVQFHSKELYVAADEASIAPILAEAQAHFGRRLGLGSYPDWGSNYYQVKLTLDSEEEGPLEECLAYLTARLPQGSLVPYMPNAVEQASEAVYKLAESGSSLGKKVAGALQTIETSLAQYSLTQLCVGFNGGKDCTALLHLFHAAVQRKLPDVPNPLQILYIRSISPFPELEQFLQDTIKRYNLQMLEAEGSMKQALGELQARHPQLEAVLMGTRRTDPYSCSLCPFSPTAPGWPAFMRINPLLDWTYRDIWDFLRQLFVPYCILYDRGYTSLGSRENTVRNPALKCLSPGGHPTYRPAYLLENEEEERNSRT

Cc1cc2nc3c(=O)[nH]c(=O)nc-3n(C[C@H](O)[C@H](O)[C@H](O)COP(=O)(O)OP(=O)(O)OC[C@H]3O[C@@H](n4cnc5c(N)ncnc54)[C@H](O)[C@@H]3O)c2cc1C [FAD]
Kd [1]: > 0.3 µM
koff ([2]; read-out: koff (FAD binding)): 0.81 ± 0.05 s⁻¹
kon ([2]; read-out: kon (FAD binding)): 4.5e+06 ± 600000 M⁻¹ s⁻¹
koff ([3]; read-out: koff (FAD binding)): 0.35 s⁻¹
kon ([3]; read-out: kon (FAD binding)): 1.5e+06 M⁻¹ s⁻¹
Kd ([4]; read-out: Kd): 0.18 ± 0.04 µM

Cc1cc2nc3c(=O)[nH]c(=O)nc-3n(C[C@H](O)[C@H](O)[C@H](O)COP(=O)(O)O)c2cc1C [FMN]
Kd ([4]; read-out: Kd^FMN): 0.094 ± 0.004 µM
koff ([5]; read-out: koff (FMN binding)): 0.32 ± 0.01 s⁻¹
kon ([5]; read-out: kon (FMN binding)): 3.4e+06 ± 100000 M⁻¹ s⁻¹
Kd ([6]; koff/kon, read-out: Kd FMN): > 0.18 µM
koff ([6]; read-out: koff (FMN binding)): 0.09 s⁻¹
kon ([6]; read-out: kon (FMN binding)): 550000 M⁻¹ s⁻¹

Nc1nc2c(ncn2[C@@H]2O[C@H](COP(=O)(O)OP(=O)(O)OP(=O)(O)O)[C@@H](O)[C@H]2O)c(=O)[nH]1 [GTP]
inhibition of FADS activity [7]: The D238A-hFADS6 was inhibited by GTP and by NADH

NC(=O)C1=CN([C@@H]2O[C@H](COP(=O)(O)OP(=O)(O)OC[C@H]3O[C@@H](n4cnc5c(N)ncnc54)[C@H](O)[C@@H]3O)[C@@H](O)[C@H]2O)C=CC1 [NADH]
inhibition of FADS activity [7]: The D238A-hFADS6 was inhibited by GTP and by NADH
